Measured values: patent US10555987B2, “GHRH agonists for the treatment of ischemic disorders” (UNIVERSITY OF MIAMI, priority 2012, dated 2020)
Entries after “also recorded” stand apart in the source; their conditions may differ. Non-standard residues stand in square brackets, D forms with d. Residues, ends and D or L forms follow the SMILES beside them. *: point of attachment. Phe(F5) = N[C@@H](Cc1c(F)c(F)c(F)c(F)c1F)C(=O)O; Desaminotyrosyl = O=C(CCc1ccc(O)cc1)*; NMeY = CN[C@@H](Cc1ccc(O)cc1)C(=O)O; Nle = CCCC[C@H](N)C(=O)O; Orn = NCCC[C@H](N)C(=O)O; Abu = CC[C@H](N)C(=O)O; GABA = NCCCC(=O)O

Assays:
GHRH receptor = biological target: T1, GHRH receptor (Homo sapiens, UniProt Q02643); assay: GHRH receptor binding, competition with 125I-labeled JV-1-42, human pituitary membrane homogenates (Table 7); parameters: Normal human pituitaries were purchased from the National Hormone and Peptide Program; tissue National Hormone and Peptide Program (A.F. Parlow, Harbor-UCLA Medical Center, Torrance, Calif.); host or cells: normal human pituitary, membrane fraction; conditions: JI-38 = 1, Table 7
T1 sequence (Q02643 23-423): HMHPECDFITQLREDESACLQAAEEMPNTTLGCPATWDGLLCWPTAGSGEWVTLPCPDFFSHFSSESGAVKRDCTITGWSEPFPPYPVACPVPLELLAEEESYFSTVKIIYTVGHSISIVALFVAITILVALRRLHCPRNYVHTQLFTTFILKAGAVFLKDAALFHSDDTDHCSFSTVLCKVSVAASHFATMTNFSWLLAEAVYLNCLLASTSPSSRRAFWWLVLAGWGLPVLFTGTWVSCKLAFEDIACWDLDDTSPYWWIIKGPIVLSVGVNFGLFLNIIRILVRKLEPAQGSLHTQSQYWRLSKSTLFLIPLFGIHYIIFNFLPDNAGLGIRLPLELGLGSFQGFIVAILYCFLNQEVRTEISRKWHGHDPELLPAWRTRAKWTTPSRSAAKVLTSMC
Excerpt: Normal human pituitaries were purchased from the National Hormone and Peptide Program (A.F. Parlow, Los Angeles, County Harbor-UCLA Medical Center, Torrance, Calif.).

[1] = tested on: myocardial infarction (Fisher-344 rats); assay: Hemodynamic analysis (pressure-volume loops), body and heart weight after MI, compared to JI-38 (Example 15, Table 16); assay type: in vivo, rat; parameters: key to ESP (End-Systolic Pressure) / EDP (End-Diastolic Pressure) / ESV (End-Systolic Volume) / PRSW (Preload Recruitable Stroke Work) / Ees (End-systolic Elastance) / dP/dt max (peak rate of the pressure rise) / dP/dt max_EDV / dP/dt min / TAU (relaxation time constant calculated by Weiss method) / SV (Stroke Volume) / CO (Cardiac Output) / SW (Stroke Work) / EF / Ea/Ees / Ea (arterial Elastance): ↓: downward arrow denotes lower than JI-38; ↑: upward arrow denotes greater than JI-38; =denotes same as JI-38; ⬇⬇: double arrow denotes greater effect; ⬆⬆: double arrow denotes greater effect; conditions: rat MI model, s.c. twice daily; pressure-volume loops; expressed in comparison to JI-38
In short: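 Female 6-month-old Fisher-344 rats after permanent left coronary ligation received GHRH agonists subcutaneously twice daily from 2 h post-surgery (n=10/group). Under ketamine/xylazine/acepromazine anesthesia, LV pressure-volume loops were recorded via carotid micromanometer catheter, calibrated by hypertonic saline bolus and cuvette method; echocardiography also serial.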

GH release [2] = assay: In vivo endocrine activity, GH release after subcutaneous administration (Table 9); conditions: rat; for Stimulation of growth hormone levels after subcutaneous administration (in words): s.c.; for GH releasing potency relative to JI-38 (=1): subcutaneous (s.c.) injection
Method: Subcutaneous Administration. Adult male rats were used and anesthetized with pentobarbital (6 mg/100 g, b.w.), by i.p. injection. […] Blood samples were taken from the jugular vein 5, 15 and/or 30 minutes after the injection. The blood samples were centrifuged, plasma was removed and the GH level was measured byELISA. The results are summarized in terms of potency in Table 9.

GH release [3] = assay: GH releasing potency in vivo, subcutaneous administration (Example 14, Table 12); parameters: species or system rat; conditions: for Serum GH level at selected time after injection (ng/ml), 0 min / Serum GH level at selected time after injection (ng/ml), 15 min / Serum GH level at selected time after injection (ng/ml), 30 min: male rats, dose 3 μg/kg, mean ± SEM; for Relative GH-releasing potency compared to JI-38 in s.c. tests (fold, range over time points): time not specified
In short: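 Potency is expressed relative to GHRH(1-29)NH2 and JI-38 (each = 1), via equivalent GHRH(1-29)NH2 dose read from a standard curve. Peptides in 5% mannitol given i.v. or s.c. to anaesthetised male Sprague-Dawley rats (200-250 g); serum GH measured by ELISA at selected times.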

SMILES | Relative affinity (Binding potency) vs JI-38 (GHRH receptor) | CO (Cardiac Output) [1] | EDP (End-Diastolic Pressure) [1] | EF [1] | ESP (End-Systolic Pressure) [1] | ESV (End-Systolic Volume) [1] | Ea (arterial Elastance) [1] | Ea/Ees [1] | Ees (End-systolic Elastance) [1] | PRSW (Preload Recruitable Stroke Work) [1] | SV (Stroke Volume) [1] | SW (Stroke Work) [1] | TAU (relaxation time constant calculated by Weiss method) [1] | dP/dt max (peak rate of the pressure rise) [1] | dP/dt max_EDV [1] | dP/dt min [1] | Stimulation of growth hormone levels after subcutaneous administration (in words) (GH release [2]) | GH releasing potency relative to JI-38 (=1) (GH release [2]; 15 min after) | GH releasing potency relative to JI-38 (=1) (GH release [2]; 30 min after) | potency as compared to JI-38 in both i.v. and s.c. tests (GH release [3]) | further results
CCCC[C@H](NC(=O)[C@@H](NC(=O)[C@H](CC(=O)O)NC(=O)[C@H](CCC(N)=O)NC(=O)[C@H](CC(C)C)NC(=O)[C@H](CC(C)C)NC(=O)[C@H](CCCN)NC(=O)[C@H](CCCNC(=N)N)NC(=O)[C@H](C)NC(=O)[C@H](CO)NC(=O)[C@H](CC(C)C)NC(=O)[C@H](CCC(N)=O)NC(=O)[C@H](CC)NC(=O)[C@H](CC(C)C)NC(=O)[C@@H](NC(=O)[C@H](CCCN)NC(=O)[C@H](CCCNC(=N)N)NC(=O)[C@H](Cc1ccc(O)cc1)NC(=O)[C@H](CO)NC(=O)[C@H](CCC(N)=O)NC(=O)[C@@H](NC(=O)[C@H](Cc1ccccc1)NC(=O)[C@@H](NC(=O)[C@H](C)NC(=O)[C@H](CC(=O)O)NC(=O)[C@@H](C)NC(=O)[C@H](Cc1ccc(O)cc1)NC)[C@@H](C)CC)[C@@H](C)O)C(C)C)[C@@H](C)CC)C(=O)N[C@@H](CC(=O)O)C(=O)N[C@@H](CCCNC(=N)N)C(=O)NC [Peptide P-27403, [N—Me-Tyr^1, D-Ala^2, Gln^8, Orn^12, Abu^15, Orn^21, Nle^27, Asp^28]hGHRH(1-29)NH—CH3] (H-[NMeY][dA]DAIFTQSYR[Orn]VL[Abu]QLSAR[Orn]LLQDI[Nle]DR-NHMe) | 27.19 | ↑ | ↑ | = | = | ↑ | = | ↓ | = | = | = | = | = | = | = | = | stimulated greater growth hormone levels than hGHRH or JI-38 | 3.60 | 2.57 | increased potency as compared to JI-38 | Serum GH level at selected time after injection (ng/ml), 0 min (GH release [3]; s.c.): 39.4 ± 5.3 ng/mL; Serum GH level at selected time after injection (ng/ml), 15 min (GH release [3]; s.c., 15 min): 608.7 ± 35.3 ng/mL; Serum GH level at selected time after injection (ng/ml), 30 min (GH release [3]; s.c., 30 min): 281.7 ± 18.6 ng/mL; Relative potency compared to GHRH(1-29), 15 min (GH release [3]; s.c., 15 min): 223.8; Relative potency compared to GHRH(1-29), 30 min (GH release [3]; s.c., 30 min): 448.9; Relative GH-releasing potency compared to JI-38 in s.c. tests (fold, range over time points) (GH release [3]; s.c.): 3.6-4.0; GH-releasing potency after s.c. administration (in words) (GH release [3]; s.c., listed as MR-403): highest GH-releasing potency; also recorded: significantly higher potencies at 30 minutes than at 15 minutes
CCCC[C@H](NC(=O)[C@@H](NC(=O)[C@H](CC(=O)O)NC(=O)[C@H](CCC(N)=O)NC(=O)[C@H](CC(C)C)NC(=O)[C@H](CC(C)C)NC(=O)[C@H](CCCN)NC(=O)[C@H](CCCNC(=N)N)NC(=O)[C@H](C)NC(=O)[C@H](CO)NC(=O)[C@H](CC(C)C)NC(=O)[C@H](CCC(N)=O)NC(=O)[C@H](CC)NC(=O)[C@H](CC(C)C)NC(=O)[C@@H](NC(=O)[C@H](CCCN)NC(=O)[C@H](CCCNC(=N)N)NC(=O)[C@H](Cc1ccc(O)cc1)NC(=O)[C@H](CO)NC(=O)[C@H](CC(N)=O)NC(=O)[C@@H](NC(=O)[C@H](Cc1c(F)c(F)c(F)c(F)c1F)NC(=O)[C@@H](NC(=O)[C@H](C)NC(=O)[C@H](CC(=O)O)NC(=O)[C@@H](C)NC(=O)CCc1ccc(O)cc1)[C@@H](C)CC)[C@@H](C)O)C(C)C)[C@@H](C)CC)C(=O)N[C@@H](CO)C(=O)N[C@@H](CCCNC(=N)N)C(=O)NCCCC(N)=O [Peptide P-25502, [Dat^1, D-Ala^2, Fpa5^6, Orn^12, Abu^15, Orn^21, Nle^27, Gab^30]hGHRH(1-30)NH2] (Desaminotyrosyl-[dA]DAI[Phe(F5)]TNSYR[Orn]VL[Abu]QLSAR[Orn]LLQDI[Nle]SR[GABA]-NH2) | 13.18 | ↓ | = | ↓ | = | = | ↑ | = | ↑ | = | ↓ | = | ↓ | = | = | = | stimulated greater growth hormone levels than hGHRH or JI-38 | 1.10 | 0.94 | increased potency as compared to JI-38 | Serum GH level at selected time after injection (ng/ml), 0 min (GH release [3]; s.c.): 61.7 ± 8.1 ng/mL; Serum GH level at selected time after injection (ng/ml), 15 min (GH release [3]; s.c., 15 min): 266.7 ± 21^ ng/ml; Serum GH level at selected time after injection (ng/ml), 30 min (GH release [3]; s.c., 30 min): 153.2 ± 33.3 ng/mL; Relative potency compared to GHRH(1-29), 15 min (GH release [3]; s.c., 15 min): 76.5; Relative potency compared to JI-38, 15 min (GH release [3]; s.c., 15 min): 1.21; Relative potency compared to GHRH(1-29), 30 min (GH release [3]; s.c., 30 min): 152.3; Relative potency compared to JI-38, 30 min (GH release [3]; s.c., 30 min): 1.36; Relative GH-releasing potency compared to JI-38 in s.c. tests (fold, range over time points) (GH release [3]; s.c., listed as MR-502): 1.2-1.4
